According to article PMC10584882 (Communications Biology, 2023):
Values joined by “and” are separate entries in the source; they are usually repeats but may differ in a detail not shown here. Equal values may be shown once.

Tests used:
human CatV = target: T1, human CatV (Homo sapiens, UniProt O60911); test: Cathepsin inhibition test, CatV; assay type: biochemical; conditions: Fig. S3 panel c, single replicates
T1 construct: made in house

human CatK = target: T2, human CatK (Homo sapiens, UniProt P43235); test: Cathepsin inhibition test, CatK; assay type: biochemical; conditions: Fig. S3 panel a, single replicates
T2 construct: made in house
T2 sequence (P43235 115-329): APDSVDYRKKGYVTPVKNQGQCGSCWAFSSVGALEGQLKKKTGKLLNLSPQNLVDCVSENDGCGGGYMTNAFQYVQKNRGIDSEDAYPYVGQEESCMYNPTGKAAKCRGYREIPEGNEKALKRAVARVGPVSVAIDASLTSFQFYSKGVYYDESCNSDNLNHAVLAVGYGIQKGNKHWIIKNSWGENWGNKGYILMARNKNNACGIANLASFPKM

CatL = target: T3, CatL (Homo sapiens, UniProt P07711); test: Cathepsin inhibition test, CatL; assay type: biochemical; conditions: for Residual activity (Vi/V0): Fig. S3 panel b, single replicates
T3 construct: made in house

SARS-CoV-2-GFP = test: microbe, parasite or virus in culture; assay type: cell-based; conditions: mean with standard error, read-out: VERO E6 EC50
[1] = inhibitor 0.105 nM, 0.000105 µM
[2] = inhibitor 0.189 nM, 0.000189 µM
[3] = inhibitor 0.612 nM, 0.000612 µM
[4] = inhibitor 1.103 nM, 0.001103 µM
[5] = inhibitor 1.985 nM, 0.001985 µM
[6] = inhibitor 3.572 nM, 0.003572 µM
[7] = inhibitor 11.547 nM, 0.011547 µM
[8] = inhibitor 20.833 nM, 0.020833 µM

T3 sequence (P07711 114-333): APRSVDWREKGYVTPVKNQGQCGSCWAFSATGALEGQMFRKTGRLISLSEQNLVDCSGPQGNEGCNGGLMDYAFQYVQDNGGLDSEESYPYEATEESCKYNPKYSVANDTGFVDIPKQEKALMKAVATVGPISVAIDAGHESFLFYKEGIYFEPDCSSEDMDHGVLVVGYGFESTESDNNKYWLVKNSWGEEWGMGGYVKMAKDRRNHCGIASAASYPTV
T1 sequence (O60911 114-334): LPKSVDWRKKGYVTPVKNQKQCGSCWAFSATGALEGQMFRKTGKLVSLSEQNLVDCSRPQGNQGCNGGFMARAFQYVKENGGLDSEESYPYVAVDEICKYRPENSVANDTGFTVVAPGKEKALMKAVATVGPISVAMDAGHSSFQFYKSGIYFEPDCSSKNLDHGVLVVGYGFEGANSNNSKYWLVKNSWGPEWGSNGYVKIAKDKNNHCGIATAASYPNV

Question: CC(C)C[C@H](NC(=O)OCc1ccccc1)C(=O)N[C@@H](C[C@@H]1CCNC1=O)C(O)S(=O)(=O)[O-].[Na+] (stereo partly drawn) [GC376] was tested. Which “Residual activity (Vi/V0)” value (human CatV; inhibitor 0.010 nM, 10 pM) did it give?
Answer: The value was 1.0857 and 1.077 and 0.9774 and 0.8982 and 0.991 and 0.8512 and 1.1 and 0.8679.

Question: And the “Residual activity (Vi/V0)” value (human CatV; inhibitor 0.018 nM, 18 pM)?
Answer: Its value is 1.336 and 1.266 and 0.9662 and 0.9302 and 1.04 and 0.8965 and 1.124 and 0.9597.

Question: What about the “Residual activity (Vi/V0)” value (human CatV; inhibitor 0.032 nM, 32 pM) of the same compound?
Answer: The value was 1.039 and 0.8981 and 0.9517 and 0.9088 and 1.019 and 0.9688 and 1.292 and 0.8604.

Question: What about the “Residual activity (Vi/V0)” value (human CatV; inhibitor 0.058 nM, 58 pM) of the same compound?
Answer: Its value is 0.6518 and 0.5159 and 0.8896 and 0.8461 and 0.9826 and 0.9436 and 1.221 and 0.8427.

Question: What about the “Residual activity (Vi/V0)” value (human CatV; [1]) of the same compound?
Answer: Its value is 0.9622 and 0.7389 and 0.9442 and 0.8081 and 0.8801 and 0.8142 and 1.285 and 0.7581.

Question: What about the “Residual activity (Vi/V0)” value (human CatV; [2]) of the same compound?
Answer: Its value is 0.6972 and 0.4428 and 0.8137 and 0.7094 and 0.8934 and 0.7434 and 1.066 and 0.6389.

Question: And the “Residual activity (Vi/V0)” value (human CatV; inhibitor 0.340 nM, 0.00034 µM)?
Answer: The value was 0.6247 and 0.3497 and 0.4956 and 0.4527 and 0.4873 and 0.5939 and 0.9738 and 0.4752.

Question: What about the “Residual activity (Vi/V0)” value (human CatV; [3]) of the same compound?
Answer: The value was 0.3307 and 0.2457 and 0.4411 and 0.4505 and 0.4917 and 0.4681 and 0.5327 and 0.3674.

Question: What about the “Residual activity (Vi/V0)” value (human CatV; [4]) of the same compound?
Answer: The value was 0.3031 and 0.1765 and 0.2948 and 0.2868 and 0.2798 and 0.3141 and 0.3564 and 0.2414.

Question: And the “Residual activity (Vi/V0)” value (human CatK; inhibitor 0.010 nM, 10 pM)?
Answer: The value was 1 and 1.168 and 0.9786 and 1.164 and 0.971.

Question: What about the “Residual activity (Vi/V0)” value (human CatK; inhibitor 0.018 nM, 18 pM) of the same compound?
Answer: Its value is 1.045 and 0.9537 and 0.8787 and 1.068 and 0.891.

Question: And the “Residual activity (Vi/V0)” value (human CatK; inhibitor 0.032 nM, 32 pM)?
Answer: Its value is 1.008 and 0.9541 and 1.052 and 1.097 and 0.9731.

Question: And the “Residual activity (Vi/V0)” value (human CatK; inhibitor 0.058 nM, 58 pM)?
Answer: Its value is 0.9618 and 1.104 and 1.

Question: What about the “Residual activity (Vi/V0)” value (human CatK; [1]) of the same compound?
Answer: The value was 0.7126 and 0.7756 and 0.8857 and 0.9962 and 0.9154.

Question: And the “Residual activity (Vi/V0)” value (human CatK; [2])?
Answer: The value was 0.687 and 0.7701 and 0.8381 and 0.9358 and 0.9354.

Question: What about the “Residual activity (Vi/V0)” value (human CatK; inhibitor 0.340 nM, 0.00034 µM) of the same compound?
Answer: Its value is 0.5857 and 0.5656 and 0.9002 and 0.8293 and 0.7129.

Question: And the “Residual activity (Vi/V0)” value (human CatK; [3])?
Answer: The value was 0.5454 and 0.3889 and 0.8833 and 0.6839 and 0.5394.

Question: What about the “Residual activity (Vi/V0)” value (human CatK; [4]) of the same compound?
Answer: Its value is 0.3854 and 0.2819 and 0.6231 and 0.4604 and 0.4262.

Question: What about the “Residual activity (Vi/V0)” value (human CatK; [5]) of the same compound?
Answer: Its value is 0.2545 and 0.4374 and 0.3426 and 0.223.

Question: What about the “Residual activity (Vi/V0)” value (human CatK; [6]) of the same compound?
Answer: The value was 0.1189 and 0.1895 and 0.3494 and 0.2326 and 0.2097.

Question: And the “Residual activity (Vi/V0)” value (human CatK; inhibitor 6.430 nM, 0.00643 µM)?
Answer: The value was 0.1182 and 0.1529 (2×) and 0.2134 and 0.1788.

Question: And the “Residual activity (Vi/V0)” value (human CatK; [7])?
Answer: The value was 0.09726 and 0.09205 and 0.1617 and 0.0793 and 0.08002.

Question: What about the “Residual activity (Vi/V0)” value (human CatK; [8]) of the same compound?
Answer: Its value is -0.01061 and 0.0635 and 0.09619 and 0.03724 and 0.04497.

Question: What about the “Residual activity (Vi/V0)” value (human CatK; inhibitor 37.500 nM, 0.0375 µM) of the same compound?
Answer: The value was 0.05483 and -0.02967 and 0.05665 and 0.01671.

Question: And the “Residual activity (Vi/V0)” value (CatL; [2])?
Answer: The value was 0.8855 and 0.7968 and 0.4672 and 0.774 and 0.5436 and 0.6444 and 0.6384 and 0.5984 and 0.8706 and 0.7685.

Question: What about the “Residual activity (Vi/V0)” value (CatL; inhibitor 0.340 nM, 0.00034 µM) of the same compound?
Answer: The value was 0.6489 and 0.6117 and 0.2724 and 0.4771 and 0.3326 and 0.4189 and 0.397 and 0.4003 and 0.6575 and 0.5962.

Question: And the “Residual activity (Vi/V0)” value (CatL; [3])?
Answer: Its value is 0.6544 and 0.4591 and 0.279 and 0.4155 and 0.2277 and 0.7268 and 0.6794 and 0.7031 and 0.6487 and 0.6608.

Question: And the “Residual activity (Vi/V0)” value (CatL; [4])?
Answer: The value was 0.448 and 0.2903 and 0.222 and 0.2673 and 0.2098 and 0.5439 and 0.5159 and 0.5223 and 0.4578 and 0.481.

Question: And the “Residual activity (Vi/V0)” value (CatL; [5])?
Answer: Its value is 0.2589 and 0.1857 and 0.1649 and 0.2093 and 0.1658 and 0.3522 and 0.3323 and 0.3518 and 0.2487 and 0.2662.

Question: And the “Residual activity (Vi/V0)” value (CatL; [6])?
Answer: Its value is 0.2062 and 0.1428 and 0.1169 and 0.1623 and 0.08981 and 0.207 and 0.1929 and 0.2019 and 0.196 and 0.2135.

Question: And the “Residual activity (Vi/V0)” value (CatL; inhibitor 6.430 nM, 0.00643 µM)?
Answer: The value was 0.139 and 0.09925 and 0.07105 and 0.118 and 0.08137 and 0.1289 and 0.127 and 0.1302 and 0.1295 and 0.1384.

Question: And the “Residual activity (Vi/V0)” value (CatL; [7])?
Answer: Its value is 0.09523 and 0.05909 and 0.04564 and 0.05812 and 0.04092 and 0.07914 and 0.07029 and 0.07354 and 0.08822 and 0.09606.

Question: And the “Residual activity (Vi/V0)” value (CatL; [8])?
Answer: The value was 0.05198 and 0.03378 and 0.02298 and 0.02931 and 0.02488 and 0.02998 and 0.02815 and 0.0288 and 0.05176 and 0.05151.

Question: And the “Residual activity (Vi/V0)” value (CatL; inhibitor 37.500 nM, 0.0375 µM)?
Answer: Its value is 0.02351 and 0.02002 and 0.01036 (2×) and 0.01453 and 0.0114 and 0.01064 and 0.01075 and 0.02418 and 0.02491.

Question: How did the EC50 (SARS-CoV-2-GFP) turn out when CC(C)C[C@H](NC(=O)OCc1ccccc1)C(=O)N[C@@H](CC1CCNC1=O)C(O)S(=O)(=O)O (stereo partly drawn) [GC-376, reference compound] was run?
Answer: Its EC50 is 1070 ± 278 nM.

Question: And the Ki (CatL; mean with standard deviation and 95% confidence interval, pH 5.5, 37 °C)?
Answer: The Ki was 0.259 nM.
